We go through seven compounds from US4622337A, “2,2-dimethyl-3-(2-halovinyl)cyclopropane carboxlic acid ester pesticides” (priority 1972, dated 1986).

A short description of data set [1]: Mammalian toxicity in rats. Conditions: rat, in vivo, po.
A short description of data set [2]: Mammalian toxicity in mice. Conditions: mouse, in vivo; oral acute.
Data set [3] concerns houseflies (M. domestica). Briefly: Insecticidal activity by spraying in a Kearns and March chamber. In kind it is in vivo, Musca domestica. The conditions noted are these: for LD50: compound alone, odourless kerosene spray. Here is the method: The insecticidal activity of DP 870 against houseflies was tested by spraying M. domestica in a Kearns and March chamber with a solution of a compound in odourless kerosene, and LD50 values calculated. The activity of DP 870 synergised with piperonylbutoxide was also measured and the results compared with the LD50 value for compound P21H of Example 18.

Data set [4] relates to houseflies (Musca domestica). Briefly: Relative toxicity to houseflies, topical drop on thorax. In kind it is in vivo. The conditions noted are these: 5-benzyl-3-furylmethyl (1R)-trans-chrysanthemate = 1000; inverse ratio of LD50; topical, female flies. A digest of the protocol:
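Female flies dosed topically on the thorax with 1 μL acetone drop; 6 dose rates, two replicates of 15 flies each, held at 20° C ± 1°, kill scored at 24 and 48 h. LD50 in μg per fly; relative toxicity from inverse LD50 ratio against 5-benzyl-3-furylmethyl (1R)-trans-chrysanthemate.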

In data set [5] the test system is mustard beetles (Phaedon cochleariae Fab). Briefly: Relative toxicity to mustard beetles, topical micro drop. In kind it is in vivo. Conditions: 5-benzyl-3-furylmethyl (1R)-trans-chrysanthemate = 1000; inverse ratio of LD50; topical, 48 hours. Summed up:
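Acetone solutions applied ventrally to adult beetles by micro drop applicator; kill scored after 48 h. Two replicates of 40–50 beetles per dose, 3–4 doses per compound; LD50 derived, and relative toxicity taken as inverse LD50 ratio against 5-benzyl-3-furylmethyl (1R)-trans-chrysanthemate.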

The next data set deals with female Musca domestica. Briefly: Topical application of pyrethroids alone and with piperonyl butoxide or Tropital. In kind it is in vivo. The source says:
Topical application of pyrethroids alone and in combination with synergist gave the following LD50 results in micrograms with female Musca domestica: […]

The subject of data set [6] is Ephestia kuhniella and Venturia canescens. Briefly: Selective toxicity to Ephestia compared to Venturia (LD50 ratio). In kind it is in vivo. The conditions noted are these: for Selectivity (ratio of toxicity to Ephestia compared to Venturia): ratio from relative toxicity (LD50). The source says: Experiments to compare the relative toxicity (LD50) of compound P39E with certain related compounds have been carried out towards both Ephestia kuhniella and Venturia canescens so that the relative toxicity to the two species can be calculated. […]

In data set [7] the test system is American cockroach, Periplaneta americana L. Briefly: Toxicity relative to bioresmethrin against American cockroach. In kind it is in vivo. Conditions: Bioresmethrin = 100.
The subject of data set [8] is Boophilus microplus, Biarra strain. Briefly: Acaricidal activity: inhibition of egg laying of injected engorged female ticks. In kind it is in vivo. The conditions noted are these: Rhipicephalus microplus, 336 h, 14 days after injection, read-out: % Inhibition (egg laying ability). The source says:
Acaricidal activity has been measured by injecting solutions of test compound P39E into engorged female ticks, Boophilus microplus, Biarra strain and the ability of the female to lay eggs 14 days after injection determined. The results are exposed as a percent of inhibition of egg laying ability compared to untreated control ticks.

In the case of `CC1(C)[C@H](C=C(Cl)Cl)[C@H]1C(=O)OCc1cccc(Oc2ccccc2)c1` (relative stereo), the LD50 in data set [1] and in data set [2] was greater than 300 mg/kg each time.

On to `C#CCc1ccc(COC(=O)[C@@H]2[C@@H](C=C(Cl)Cl)C2(C)C)o1` (relative stereo), for which the values for the LD50 in data set [1] and in data set [2] were 300 mg/kg and roughly 300 mg/kg, respectively.

Consider `CC1(C)[C@H](C=C(Cl)Cl)[C@H]1C(=O)OCc1coc(Cc2ccccc2)c1` (relative stereo), for which the LD50 in data set [2] was 100 mg/kg.

With `CC1(C)C(C=C(Cl)Cl)C1C(=O)OCc1cccc(Oc2ccccc2)c1` (centres unmarked) [Compound P21H], the LD50 in [3] was 0.022 μg/female. Besides, in data set [4], the “Relative Toxicity, Houseflies” value is on record as 660. Besides, the “Relative Toxicity, Mustard Beetles” value in data set [5] was 740. Also, the “LD 50 active compound only” value with female Musca domestica (alone) amounted to 0.031 µg. Besides, the “LD50 Active compound + Tropital (1:5)” value in the data set with female Musca domestica (with Tropital (1:5)) is 0.019 µg. Further, in the data set with female Musca domestica (with piperonyl butoxide (1:5)), the “LD50 Active compound + piperonyl butoxide (1:5)” value came to 0.018 µg.

Take `CC1(C)[C@H](C=C(Cl)Cl)[C@H]1C(=O)OCc1cccc(Oc2ccccc2)c1` [Compound P29M, 3-Phenoxybenzyl-(1R)--trans-2,2-dimethyl-3-(2,2-dichlorovinyl)cyclopropanecarboxylate]: in [4], the “Relative Toxicity, Houseflies” value is recorded as 740. Moreover, in data set [6], the “Selectivity (ratio of toxicity to Ephestia compared to Venturia)” value was 2.8. Also, the “Relative Toxicity (American cockroach)” value in data set [7] amounted to 800.

As a reminder, the inhibition is the drop in the measured response relative to a control, in per cent. `CC1(C)[C@H](C(=O)OC(C#N)c2cccc(C(=O)c3ccccc3)c2)[C@@H]1C=C(Br)Br` (stereo partly drawn) [Compound P39E, (αRS)-cyano-3-benzoylbenzyl(1R)cis-2,2-dimethyl-3-(2,2-dibromovinyl)-cyclopropane carboxylate]: the “Relative Toxicity, Houseflies” value in data set [4] is reported as 330. Further, the selectivity in words result in data set [6] (Ephestia over Venturia) was “very marked and quite unexpected selectivity”. In data set [6], the “Selectivity (ratio of toxicity to Ephestia compared to Venturia)” value is reported as 7.9. Also, the inhibition at 100 µg/mL in data set [8] (0.1 mg/ml) came out at 0%. Also, the inhibition at 1000 µg/mL in data set [8] (1 mg/ml) amounted to 90%. The inhibition at 10000 µg/mL in data set [8] (10 mg/ml) was 100%. Besides, the “Relative Toxicity, Mustard Beetles” value in data set [5] was 2200.

As to `CC1(C)[C@H](C=C(F)F)[C@H]1C(=O)OCN1C(=O)C2=C(CCCC2)C1=O` [DP 870], the LD50 in [3] turned out to be 0.09 μg/female. In data set [3] (plus piperonyl butoxide (1:5 w/w)), the “LD50, plus piperonyl-butoxide” value stood at 0.04 μg/female.
